# In article PMC10818546, “CYP1-Activation and Anticancer Properties of Synthetic Methoxylated Resveratrol Analogues” (Molecules, 2024):
# Tested on: MCF7 (TCDD)
# Assay: MTT cytotoxicity assay, TCDD-induced MCF7 cells
# Format: cell-based, human
# Settings: Homo sapiens, MCF7, MTT assay, 96 h incubation; cells induced with 10 nM TCDD for 24 h; read-out: IC50 MCF7 (TCDD)
# Method: (§1) The antiproliferative activity of the resveratrol analogues was investigated using a human breast cell line panel, which has been characterised for CYP1 expression in our laboratories. IC50 values for both cis- and trans-isomers were determined using a standard 3-[4,5-dimethylthiazol-2-yl]-2,5-diphenyl tetrazolium bromide (MTT) cell viability assay and are shown in Table 1 (trans-stilbene analogues) and Table 2 (cis-stilbene analogues).
# (§2) MCF7 cells are both ER positive and Ah receptor positive and have been well documented for their CYP1 expression, and it is known that treatment with TCDD elevates CYP1A1 and CYP1B1 expression. The cells were treated with DMSO (0.1%) for 24 h for constitutive expression, whereas for inducible CYP1 expression, the cells were treated with TCDD (10 nM) for 24 h.
# (§3) A standard MTT (3-[4,5-dimethylthiazol-2-yl]-2,5-diphenyl tetrazolium bromide) cell viability assay was employed to evaluate the cytotoxicity of the stilbenes prepared. The MTT assay is a rapid quantitative spectrophotometric method for determining cell growth (viability) due to necrosis or apoptosis in monolayer-cultured cell lines in response to external factors. It is widely employed to evaluate the cytotoxicity of potential medicinal agents.
# (§4) MCF7 cells were grown in RPMI-1640 medium with phenol red and 10% (v/v) heat-inactivated (heated to 56 °C for 45 min) foetal calf serum. MDA-468 cells were grown in RPMI-1640 medium with 10% (v/v) heat-inactivated foetal calf serum and L-glutamine (2 mM) without phenol red. MCF-10A cells were grown in Dulbecco’s modified Eagle’s medium/ Ham’s F-12 medium (1:1) with 5% (v/v) heat-inactivated foetal calf serum, epidermal growth factor (20 ng/mL), insulin ([…]) and hydrocortisone (500 ng/mL). Cells were maintained at 37 °C, 5% CO2/95% air with 100% humidity and passaged every 2–3 days using trypsin EDTA solution (0.25% w/v). Adhered cells at sub confluence were harvested for experimental use.
# (§5) Aliquots of cell suspensions (100 µL at 2 × 10^3 cells per ml) were dispensed into sterile 96-well microtiter flat-bottomed plates. For the MDA468 and MCF10A cell lines, the plates were incubated at 37 °C, 5% CO2/95% air with 100% humidity for 24 h prior to the addition of test compounds. For MCF7 cells, after allowing approximately 4 h for cells to adhere, 100 µL of medium containing TCDD (from 100 mM stock in DMSO) or medium with 0.2% (v/v) DMSO was added to give a final concentration of 10 nM TCDD and 0.1% (v/v) DMSO. After 24 h, the medium was aspirated and replaced with fresh medium (100 µL) before the addition of test compounds.
# (§6) Then, 100 µL aliquots of test compounds were added within 30 min into the wells from a 100 mM stock solution in DMSO and serially diluted to give final concentrations of […], 0.01, 0.003, 0.001 and 0.0003 µM. […] The cells were allowed to grow for 96 h at 5% CO2, 37 °C, to give 80–90% confluence in the control wells, after which 50 µL of 2 mg/mL MTT (final concentration 0.4 mg/mL) in sterile phosphate buffer was added to each well and the plates were further incubated for 2 h. All medium was aspirated and the formazan precipitate generated by viable cells was solubilised by 150 µL of DMSO. All the plates were vortexed and the absorbance at 540 nm was determined using a SpectraMax M5 plate reader (Molecular Devices, Wokingham, UK).
# (§7) Results were expressed as a percentage of the control value versus the negative logarithm of the molar drug concentration range using GraphPad Prism (Version 5.00). Relative toxicities of each compound within each cell line were expressed as 50% of growth inhibition (IC50). All determinations were carried out in quadruplicate.
row,Structure (SMILES),IC50
1,"Oc1ccc(/C=C/c2cc(O)cc(O)c2)cc1 [Resveratrol, (E)-4,3′,5′-trihydroxy stilbene]",33 µM
2,COc1ccc(/C=C/c2cc(OC)cc(OC)c2)cc1 [DMU271],14 µM
3,COc1cc(/C=C/c2ccccc2)cc(OC)c1OC [DMU507],50 µM
4,COc1ccc(/C=C\c2cc(OC)cc(OC)c2)cc1 [DMU210],24 µM

# Same assay, conditions: Homo sapiens, MCF7, read-out: IC50 MCF7 (TCDD)
row,Structure (SMILES),IC50
1,"COc1ccc(/C=C/c2cc(OC)c(OC)c(OC)c2)cc1 [DMU212, (E)-4,3′,4′,5′-tetramethoxystilbene]",0.12 µM

# Tested on: MDA468
# Assay: MTT cytotoxicity assay, MDA468 cells
# Format: cell-based, human
# Settings: Homo sapiens, 96 h, read-out: IC50 MDA468
# Method: as §1
# MDA468 cells represent an aggressive multi-drug-resistant tumour type and are ER negative but are aryl hydrocarbon (Ah) receptor positive in the presence of TCDD [46].
# as §3, §4, §5, §6, §7
row,Structure (SMILES),IC50
1,"COc1ccc(/C=C/c2cc(OC)c(OC)c(OC)c2)cc1 [DMU212, (E)-4,3′,4′,5′-tetramethoxystilbene]",0.001 µM

# Same assay, conditions: Homo sapiens; MTT assay, 96 h incubation; read-out: IC50 MDA468
row,Structure (SMILES),IC50
1,"Oc1ccc(/C=C/c2cc(O)cc(O)c2)cc1 [Resveratrol, (E)-4,3′,5′-trihydroxy stilbene]",29 µM
2,COc1ccc(/C=C/c2cc(OC)cc(OC)c2)cc1 [DMU271],> 100 µM
3,COc1cc(/C=C/c2ccccc2)cc(OC)c1OC [DMU507],10 µM
4,COc1ccc(/C=C\c2cc(OC)cc(OC)c2)cc1 [DMU210],> 100 µM

# Same assay, conditions: ratio of IC50 values
row,Structure (SMILES),TS = tumour selectivity = IC50 MCF10A/IC50 MDA468
1,"COc1ccc(/C=C/c2cc(OC)c(OC)c(OC)c2)cc1 [DMU212, (E)-4,3′,4′,5′-tetramethoxystilbene]",over 4000
2,"Oc1ccc(/C=C/c2cc(O)cc(O)c2)cc1 [Resveratrol, (E)-4,3′,5′-trihydroxy stilbene]",1.7
3,COc1cc(/C=C/c2ccccc2)cc(OC)c1OC [DMU507],7

# Same assay, conditions: ratio of IC50 values; listed as 212
row,Structure (SMILES),TS = tumour selectivity = IC50 MCF10A/IC50 MDA468
1,"COc1ccc(/C=C/c2cc(OC)c(OC)c(OC)c2)cc1 [DMU212, (E)-4,3′,4′,5′-tetramethoxystilbene]",4300

# Tested on: not given
# Assay: not given
# Settings: mouse, 0.2% (w/w) of the diet for 14 weeks; cited from earlier work
Structure (SMILES),hepatotoxicity,steady state level in the liver
"COc1ccc(/C=C/c2cc(OC)c(OC)c(OC)c2)cc1 [DMU212, (E)-4,3′,4′,5′-tetramethoxystilbene]",without any obvious signs of hepatoxicity,up to 0.7 nmol/g tissue

# Tested on: MCF7
# Assay: MTT cytotoxicity assay, MCF7 cells (uninduced)
# Format: cell-based, human
# Settings: Homo sapiens, MCF7, 96 h, MTT assay, 96 h incubation, 37 °C, means of quadruplicate; read-out: IC50 MCF7
# Method: as §1, §2, §3, §4, §5, §6, §7
row,Structure (SMILES),IC50
1,COc1cc(/C=C/c2ccccc2)cc(OC)c1OC [DMU507],50 µM

# Same assay, conditions: Homo sapiens, MCF7, 96 h, read-out: IC50 MCF7
row,Structure (SMILES),IC50
1,"COc1ccc(/C=C/c2cc(OC)c(OC)c(OC)c2)cc1 [DMU212, (E)-4,3′,4′,5′-tetramethoxystilbene]",2.6 µM

# Same assay, conditions: Homo sapiens, MCF7; MTT assay, 96 h incubation, 37 °C, means of quadruplicate; read-out: IC50 MCF7
row,Structure (SMILES),IC50
1,"Oc1ccc(/C=C/c2cc(O)cc(O)c2)cc1 [Resveratrol, (E)-4,3′,5′-trihydroxy stilbene]",31 µM
2,COc1ccc(/C=C/c2cc(OC)cc(OC)c2)cc1 [DMU271],14 µM
3,COc1ccc(/C=C\c2cc(OC)cc(OC)c2)cc1 [DMU210],26 µM

# Tested on: MDA231
# Assay: MTT cytotoxicity assay, MDA231 cells
# Format: cell-based
# Settings: Homo sapiens, MDA-MB-231; triple negative breast tumour cell line
# Method: DMU212 was also evaluated for cytotoxic activity in the aggressive, triple negative breast tumour cell line MDA231. This cell line has been reported to only weakly express CYP1A1 but constitutively express CYP1B1 [33]. […] However further studies would be required to confirm this statement.
# MDA231 breast cancer cell line represents an aggressive tumour type. Treatment of this ER-negative and Ah receptor-positive cell line with TCDD has been reported to only weakly induce CYP1A1 mRNA expression but enhance the constitutive CYP1B1 expression. Other researchers have reported the ratio of active CYP1A1/CYP1B1 protein as 16/84 ratio in MDA231 [32].
# as §3, with “It is widely employed to evaluate the cytotoxicity of potential medicinal agents.” left out
# Then, 100 µL aliquots of test compounds were added within 30 min into the wells from a 100 mM stock solution in DMSO and serially diluted to give final concentrations of […], 0.01, 0.003, 0.001 and 0.0003 µM. […] All the plates were vortexed and the absorbance at 540 nm was determined using a SpectraMax M5 plate reader (Molecular Devices, Wokingham, UK). […]
row,Structure (SMILES),IC50
1,"COc1ccc(/C=C/c2cc(OC)c(OC)c(OC)c2)cc1 [DMU212, (E)-4,3′,4′,5′-tetramethoxystilbene]",> 100 µM

# Tested on: MCF10A
# Assay: MTT cytotoxicity assay, MCF10A non-tumour control cells
# Format: cell-based
# Settings: Homo sapiens, MCF-10A, 96 h, MTT assay, 96 h incubation, non-tumour control cells; read-out: IC50 MCF10A
# Method: as §1
# MCF10A cells are non-tumourigenic human mammary epithelial in origin which have been spontaneously immortalised without chemical intervention. CYP1 activity in MCF10A cells is negligible. […] Thus, MCF10A cell line is commonly used as a control in cytotoxicity assays.
# as §3, §4, §5, §6, §7
row,Structure (SMILES),IC50
1,COc1cc(/C=C/c2ccccc2)cc(OC)c1OC [DMU507],70 µM

# Same assay, conditions: Homo sapiens, MCF-10A, 96 h, read-out: IC50 MCF10A
row,Structure (SMILES),IC50
1,"COc1ccc(/C=C/c2cc(OC)c(OC)c(OC)c2)cc1 [DMU212, (E)-4,3′,4′,5′-tetramethoxystilbene]",4.3 µM

# Same assay, conditions: Homo sapiens, MCF-10A; MTT assay, 96 h incubation, non-tumour control cells; read-out: IC50 MCF10A
row,Structure (SMILES),IC50
1,"Oc1ccc(/C=C/c2cc(O)cc(O)c2)cc1 [Resveratrol, (E)-4,3′,5′-trihydroxy stilbene]",50 µM
2,COc1ccc(/C=C/c2cc(OC)cc(OC)c2)cc1 [DMU271],> 100 µM
3,COc1ccc(/C=C\c2cc(OC)cc(OC)c2)cc1 [DMU210],> 100 µM

# Tested on: human breast cell line panel
# Assay: MTT cytotoxicity assay, statements for all cell lines of the panel
# Format: cell-based
# Settings: Homo sapiens; MCF7, MCF7 (TCDD), MCF10A, MDA468; summary of the text; read-out: IC50 for all cell lines tested
# Method: as §1, §3, §4, §5, §6, §7
row,Structure (SMILES),IC50
1,COc1cc(/C=C/c2ccccc2)cc(OC)c1OC [DMU507],> 10 µM

# Tested on: CYP1 enzymes (CYP1A1, CYP1A2, CYP1B1)
# Assay: Incubation with human CYP1 Supersomes, HPLC analysis
# Format: in vitro ADME
# Settings: NADPH, 37 °C, 20 min
# Method: The CYPs isozyme panel used in this study were prepared from transformed insect cells expressing human CYPs (CYP1A1, CYP1A2 or CYP1B1) with co-expression of human NADPH reductase (Supersomes^TM). […] The general procedure was as follows: DMU212 was separately incubated with CYP1A1, CYP1A2, CYP1B1, CYP3A4 and non-CYP-expressing Supersomes^TM in the presence of phosphate buffer and NADPH at 37 °C. Samples were taken at regular intervals of 5 min over a 20 min period, and the enzymatic reaction in the sample was terminated immediately. Following centrifugation, the supernatants were removed and analysed by HPLC.
# After 10 min of analysis, a linear gradient was initiated with the acetonitrile content rising to 70% over 5 min and with the 50 mM ammonium acetate decreasing accordingly. An equilibration time of 6 min was allowed between each sample. Analysis was conducted with a Jasco (Jasco UK limited) analytical system consisting of an AS841 autosampler, PU980 pump and LG low-pressure tertiary mixing valve, FP1500 fluorescence detector (JASCO UK Ltd., Heckmondwike, UK), column heater/ chiller (Jones Chromatography), and DG440 in-line degasser (Phenomenex, UK). Analytical data were collected using Borwin HPLC software (version 1.5), For the detection of DMU215, an in-line photoreactivity cell was used (Beam Boost^TM, Advanced Separations Technology Incorporated).
row,Structure (SMILES),substrate for CYP1 enzymes
1,"COc1ccc(/C=C/c2cc(OC)c(OC)c(OC)c2)cc1 [DMU212, (E)-4,3′,4′,5′-tetramethoxystilbene]",substrate for CYP1 enzymes
